Experimental data as given in patent US4735954A, “Anti-rheumatic agent” (priority 1985, dated 1988).

Tests used:
[1] = tested on: Adjuvant-induced Edema in Left Legs; assay: adjuvant-induced arthritis in rats, edema in left legs; assay type: in vivo, female Wistar rats
Experimental: (§1) Eight female Wistar rats in each group, weighing 140-200 g were used. The arthritis was induced by intradermal injection of Mycobacterium butyricum suspended in liquid paraffin (0.6 mg/0.1 ml) as the adjuvant to tail. The change in volume of both legs due to the formation of edema was measured 12, 16 and 19 days after the adjuvant challenge. In addition, a severity of the secondary inflammation observed in auricles, paws, legs and tail was graded into the degrees of 0-4.

[2] = tested on: Adjuvant-induced Edema in Right Legs; assay: adjuvant-induced arthritis in rats, edema in right legs; assay type: in vivo, female Wistar rats
Experimental: as §1

[3] = tested on: Adjuvant-induced Secondary Inflammation; assay: adjuvant-induced arthritis in rats, secondary inflammation; assay type: in vivo, female Wistar rats
Experimental: as §1

[4] = tested on: adjuvant-induced experimental arthritis; assay: adjuvant-induced experimental arthritis in rats (overall); assay type: in vivo; conditions: oral, 20 mg/kg once or 10 mg/kg twice every day
Experimental: as §1

acute toxicity in rats = conditions: rat, in vivo
acute toxicity in mice = conditions: mouse, in vivo
rats and mice = assay: toxicological studies (acute, subacute, chronic); assay type: in vivo; conditions: acute (several routes), subacute (oral, one month), chronic (oral, six months)
[5] = tested on: type I (immediate type) allergic reaction; conditions: own earlier publications; cited from earlier work
[6] = tested on: Arthus reaction (type III allergic reaction); conditions: own earlier publication; cited from earlier work
[7] = disclosed in earlier patents; cited from earlier work
[8] = disclosed in earlier patents; cited from earlier work; remark: listed apart in the source
[9] = 10 × 2 mg/kg/day p.o., 12th day
[10] = 10 × 2 mg/kg/day p.o., 16th day
[11] = 10 × 2 mg/kg/day p.o., 19th day

With `C[C@]12CCC(=O)C=C1CC[C@@H]1[C@@H]2[C@@H](O)C[C@@]2(C)[C@H]1CC[C@]2(O)C(=O)CO` [Hydrocortisone, reference compound] the “Inhibition of edema in left legs” value ([1]; 5 mg/kg/day p.o., 12th day) was 57.0%, the “Inhibition of edema in left legs” value ([1]; 5 mg/kg/day p.o., 16th day) was 53.1% and the “Inhibition of edema in left legs” value ([1]; 5 mg/kg/day p.o., 19th day) was 54.7%. The “Inhibition of edema in right legs” value ([2]; 5 mg/kg/day p.o., 12th day) was 90.9%, the “Inhibition of edema in right legs” value ([2]; 5 mg/kg/day p.o., 16th day) was 60.1% and the “Inhibition of edema in right legs” value ([2]; 5 mg/kg/day p.o., 19th day) was 57.8%. The “Inflammation Score” value ([3]; 5 mg/kg/day p.o., 16th day, control 11.8) was 8.1 and the “Inflammation Score” value ([3]; 5 mg/kg/day p.o., 19th day, control 17.0) was 9.3.

For `CC(C)C(=O)c1c(C(C)C)nn2ccccc12` [KC-404, 3-isobutyryl-2-isopropylpyrazalo[1,5-a]pyridine], the “Inhibition of edema in left legs” value ([1]; 20 mg/kg/day p.o., 12th day) was 71.7%, the “Inhibition of edema in left legs” value ([1]; 20 mg/kg/day p.o., 16th day) was 79.9% and the “Inhibition of edema in left legs” value ([1]; 20 mg/kg/day p.o., 19th day) was 61.1%. The “Inhibition of edema in left legs” value [1, 9] was 50.2%, the “Inhibition of edema in left legs” value [1, 10] was 28.6% and the “Inhibition of edema in left legs” value [1, 11] was 41.9%. The “Inhibition of edema in right legs” value ([2]; 20 mg/kg/day p.o., 12th day) was 44.4%, the “Inhibition of edema in right legs” value ([2]; 20 mg/kg/day p.o., 16th day) was 80.8% and the “Inhibition of edema in right legs” value ([2]; 20 mg/kg/day p.o., 19th day) was 53.1%. The “Inhibition of edema in right legs” value [2, 9] was 19.8%, the “Inhibition of edema in right legs” value [2, 10] was 56.6% and the “Inhibition of edema in right legs” value [2, 11] was 39.9%. For the same compound, the “Inflammation Score” value ([3]; 20 mg/kg/day p.o., 16th day, control 11.8) was 6.6, the “Inflammation Score” value ([3]; 20 mg/kg/day p.o., 19th day, control 17.0) was 10.3 and the “Inflammation Score” value ([3]; 10 × 2 mg/kg/day p.o., 16th day, control 11.8) was 9.0. For the same compound, the “Inflammation Score” value ([3]; 10 × 2 mg/kg/day p.o., 19th day, control 17.0) was 11.4, the “inhibition of the production of adjuvant-induced experimental arthritis” value [4] was “markedly inhibits” and the LD50 (acute toxicity in rats; ip, Female) was 419 mg/kg. It also gave an LD50 (acute toxicity in rats; ip, Male) of 500 mg/kg, an LD50 (acute toxicity in rats; iv, Female) of 42.5 mg/kg and an LD50 (acute toxicity in rats; iv, Male) of 43.2 mg/kg. The LD50 (acute toxicity in rats; po, Female) was 1400 mg/kg, the LD50 (acute toxicity in rats; sc, Female) was 1370 mg/kg and the LD50 (acute toxicity in rats; sc, Male) was 1450 mg/kg. For the same compound, the LD50 (acute toxicity in mice; ip, Female) was 500 mg/kg, the LD50 (acute toxicity in mice; ip, Male) was 460 mg/kg and the LD50 (acute toxicity in mice; iv, Female) was 146 mg/kg. It also gave an LD50 (acute toxicity in mice; iv, Male) of 160 mg/kg, an LD50 (acute toxicity in mice; po, Female) of 1860 mg/kg and an LD50 (acute toxicity in mice; po, Male) of 1880 mg/kg. The LD50 (acute toxicity in mice; sc, Female) was 3100 mg/kg, the LD50 (acute toxicity in mice; sc, Male) was 3000 mg/kg and the toxicity (rats and mice) was “low in toxicity”. For the same compound, the “effect on type I allergic reaction” value [5] was “inhibitory effect”, the “effect on the Arthus reaction (type III allergic reaction)” value [6] was “inhibits” and the cerebral vasodilating effect [7] was “Cerebral vasodilating”. For the same compound, the bronchodilating effect [8] was “bronchodilating”.
